pIC50: −log10 of the molar value.
Experiments:
[1] = species on record: Mus musculus; assay: Antidepressant activity in Swiss albino mouse assessed as decrease in immobility time by forced swim test (reference value: 203.3 sec); assay type: functional
[2] = species on record: Mus musculus; assay: Antidepressant activity in Swiss albino mouse assessed as change in immobility by tail suspension test; assay type: functional
[3] = species on record: Mus musculus; assay: Antidepressant activity in Swiss albino mouse assessed as change in immobility by forced swim test; assay type: functional
[4] = species on record: Mus musculus; assay: Antidepressant activity in Swiss albino mouse assessed as decrease in immobility time by tail suspension test (reference value: 185.8 sec); assay type: functional
[5] = species on record: Mus musculus; assay: Anticonvulsant activity in mouse by MES test; assay type: functional
[6] = species on record: Rattus norvegicus; assay: Anticonvulsant activity in tryptamine seizure potentiated Wistar rat; assay type: functional
[7] = species on record: Ovis aries; assay: Selectivity index, ratio of IC50 for ovine COX-1 to IC50 for ovine COX-2
[8] = molecular target: T1, Prostaglandin G/H synthase 2 (Ovis aries, UniProt P79208); assay: Inhibition of ovine COX-2
T1 sequence (P79208 whole entry): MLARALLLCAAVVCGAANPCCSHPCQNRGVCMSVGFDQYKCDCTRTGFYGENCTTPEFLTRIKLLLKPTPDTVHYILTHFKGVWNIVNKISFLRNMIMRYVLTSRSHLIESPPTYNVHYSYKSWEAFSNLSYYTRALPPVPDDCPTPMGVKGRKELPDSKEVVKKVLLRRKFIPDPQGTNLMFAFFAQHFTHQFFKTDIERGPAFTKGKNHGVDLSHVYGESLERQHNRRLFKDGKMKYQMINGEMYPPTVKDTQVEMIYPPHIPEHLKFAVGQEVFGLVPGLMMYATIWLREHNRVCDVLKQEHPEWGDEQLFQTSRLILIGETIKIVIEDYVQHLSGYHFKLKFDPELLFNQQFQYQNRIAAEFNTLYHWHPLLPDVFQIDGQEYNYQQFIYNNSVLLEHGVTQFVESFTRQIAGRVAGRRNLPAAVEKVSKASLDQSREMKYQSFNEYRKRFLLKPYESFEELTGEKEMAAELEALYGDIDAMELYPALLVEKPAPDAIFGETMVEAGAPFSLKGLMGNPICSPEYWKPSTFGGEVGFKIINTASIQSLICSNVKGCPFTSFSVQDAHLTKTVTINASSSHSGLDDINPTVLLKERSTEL

[9] = molecular target: T2, Prostaglandin G/H synthase 1 (Ovis aries, UniProt P05979); assay: Inhibition of ovine COX-1
T2 sequence (P05979 whole entry): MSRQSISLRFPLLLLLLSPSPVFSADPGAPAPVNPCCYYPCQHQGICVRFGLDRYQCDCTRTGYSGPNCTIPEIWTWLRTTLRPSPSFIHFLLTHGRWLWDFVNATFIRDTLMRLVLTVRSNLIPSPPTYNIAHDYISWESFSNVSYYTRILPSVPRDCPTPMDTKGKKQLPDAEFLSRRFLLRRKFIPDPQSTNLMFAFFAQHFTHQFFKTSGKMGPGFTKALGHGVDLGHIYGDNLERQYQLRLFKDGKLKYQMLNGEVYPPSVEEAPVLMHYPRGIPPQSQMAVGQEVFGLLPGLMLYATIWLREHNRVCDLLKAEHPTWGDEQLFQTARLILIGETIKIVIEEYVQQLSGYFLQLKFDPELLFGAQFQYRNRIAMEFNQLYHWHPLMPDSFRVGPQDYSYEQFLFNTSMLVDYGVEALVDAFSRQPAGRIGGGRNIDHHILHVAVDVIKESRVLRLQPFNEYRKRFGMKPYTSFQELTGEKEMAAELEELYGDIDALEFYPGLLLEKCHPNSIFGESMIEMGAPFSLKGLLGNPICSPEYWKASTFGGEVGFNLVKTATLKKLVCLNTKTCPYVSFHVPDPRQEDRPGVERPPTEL

[10] = system: Pseudomonas aeruginosa; assay: Antibacterial activity against Pseudomonas aeruginosa assessed as diameter of inhibition zone at 100 ppm; assay type: functional; conditions: read-out: DIZ
[11] = system: Bacillus subtilis; assay: Antibacterial activity against Bacillus subtilis assessed as diameter of inhibition zone at 100 ppm; assay type: functional; conditions: read-out: DIZ
[12] = system: Aspergillus niger; assay: Antifungal activity against Aspergillus niger assessed as diameter of inhibition zone at 100 ppm; assay type: functional; conditions: read-out: DIZ
[13] = system: Escherichia coli; assay: Antibacterial activity against Escherichia coli assessed as diameter of inhibition zone at 100 ppm; assay type: functional; conditions: read-out: DIZ
[14] = system: Salmonella typhi; assay: Antibacterial activity against Salmonella typhi assessed as diameter of inhibition zone at 100 ppm; assay type: functional, Salmonella enterica subsp. enterica serovar Typhi; conditions: Salmonella enterica, read-out: DIZ
[15] = system: Salmonella paratyphi; assay: Antibacterial activity against Salmonella paratyphi assessed as diameter of inhibition zone at 100 ppm; assay type: functional, Salmonella enterica subsp. enterica serovar Paratyphi A; conditions: Salmonella enterica, read-out: DIZ
[16] = system: Micrococcus luteus; assay: Antibacterial activity against Micrococcus luteus assessed as diameter of inhibition zone at 100 ppm; assay type: functional; conditions: read-out: DIZ
[17] = system: Streptococcus mutans; assay: Antibacterial activity against Streptococcus mutans assessed as diameter of inhibition zone at 100 ppm; assay type: functional; conditions: read-out: DIZ
[18] = system: Trichoderma viride; assay: Antifungal activity against Trichoderma viride assessed as diameter of inhibition zone at 100 ppm; assay type: functional; conditions: read-out: DIZ
[19] = system: Candida albicans; assay: Antifungal activity against Candida albicans assessed as diameter of inhibition zone at 100 ppm; assay type: functional; conditions: read-out: DIZ
[20] = system: Geotrichum candidum; assay: Antifungal activity against Geotrichum candidum; assay type: functional
[21] = system: Bacillus subtilis; assay: Antibacterial activity against Bacillus subtilis; assay type: functional
[22] = system: Escherichia coli; assay: Antibacterial activity against Escherichia coli; assay type: functional
[23] = system: Pseudomonas aeruginosa; assay: Antibacterial activity against Pseudomonas aeruginosa; assay type: functional
[24] = system: Streptococcus pyogenes; assay: Antibacterial activity against Streptococcus pyogenes; assay type: functional
[25] = system: PC-12; assay: Anti amyotrophic lateral sclerosis activity in rat PC-12 cells assessed as decrease in G93A SOD1 aggregate formation relative to control; assay type: functional; design: scale not given: the % may be the effect or the level left
[26] = molecular target: Acetylcholinesterase (Electrophorus electricus, UniProt O42275); assay: Inhibition of electric eel AChE
[27] = molecular target: Cholinesterase (Equus caballus) (UniProt P81908); assay: Inhibition of equine serum BChE at 10^-3 M relative to control; assay type: cell-free; conditions: dose 1.0 10^-3M
[28] = molecular target: T3, Amine oxidase [flavin-containing] A (Homo sapiens, UniProt P21397); assay: Inhibition of MAO-A (unknown origin) relative to control
T3 sequence (P21397 whole entry): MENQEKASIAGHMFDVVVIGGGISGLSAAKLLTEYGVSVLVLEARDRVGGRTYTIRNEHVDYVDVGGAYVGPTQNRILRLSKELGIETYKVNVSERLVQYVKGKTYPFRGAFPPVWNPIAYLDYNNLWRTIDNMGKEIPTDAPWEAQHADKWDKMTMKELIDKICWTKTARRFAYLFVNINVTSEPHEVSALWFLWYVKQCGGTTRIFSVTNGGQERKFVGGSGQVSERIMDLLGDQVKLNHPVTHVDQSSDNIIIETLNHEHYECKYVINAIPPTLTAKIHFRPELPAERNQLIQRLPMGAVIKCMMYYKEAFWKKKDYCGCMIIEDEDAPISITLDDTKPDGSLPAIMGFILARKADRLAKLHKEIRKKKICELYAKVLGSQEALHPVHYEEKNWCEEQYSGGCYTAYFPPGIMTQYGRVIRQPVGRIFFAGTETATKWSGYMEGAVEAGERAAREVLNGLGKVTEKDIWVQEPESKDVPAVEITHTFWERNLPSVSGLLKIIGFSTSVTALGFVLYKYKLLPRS

[29] = Selectivity index, ratio of CC50 african green monkey Vero cells to IC50 for Mycobacterium tuberculosis; assay type: toxicity; conditions: read-out: Ratio CC50/IC50
[30] = system: Mycobacterium tuberculosis; assay: Antibacterial activity against Mycobacterium tuberculosis; assay type: functional, organism-based
[31] = molecular target: Glycogen synthase kinase-3 beta (Homo sapiens, UniProt P49841); assay: Inhibition of human GSK-3beta
Sequence of Glycogen synthase kinase-3 beta (P49841 whole entry): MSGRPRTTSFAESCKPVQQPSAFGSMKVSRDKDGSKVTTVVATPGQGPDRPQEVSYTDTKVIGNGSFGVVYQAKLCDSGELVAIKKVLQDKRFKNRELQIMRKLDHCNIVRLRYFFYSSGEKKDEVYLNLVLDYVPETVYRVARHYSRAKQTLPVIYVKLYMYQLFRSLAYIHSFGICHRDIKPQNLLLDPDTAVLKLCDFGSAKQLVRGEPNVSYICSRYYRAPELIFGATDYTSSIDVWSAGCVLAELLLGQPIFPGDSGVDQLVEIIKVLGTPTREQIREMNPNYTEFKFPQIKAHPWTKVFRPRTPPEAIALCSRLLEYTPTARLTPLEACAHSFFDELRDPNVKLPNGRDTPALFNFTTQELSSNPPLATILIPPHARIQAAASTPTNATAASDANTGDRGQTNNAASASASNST

Sequence of Cholinesterase (Equus caballus) (P81908 whole entry): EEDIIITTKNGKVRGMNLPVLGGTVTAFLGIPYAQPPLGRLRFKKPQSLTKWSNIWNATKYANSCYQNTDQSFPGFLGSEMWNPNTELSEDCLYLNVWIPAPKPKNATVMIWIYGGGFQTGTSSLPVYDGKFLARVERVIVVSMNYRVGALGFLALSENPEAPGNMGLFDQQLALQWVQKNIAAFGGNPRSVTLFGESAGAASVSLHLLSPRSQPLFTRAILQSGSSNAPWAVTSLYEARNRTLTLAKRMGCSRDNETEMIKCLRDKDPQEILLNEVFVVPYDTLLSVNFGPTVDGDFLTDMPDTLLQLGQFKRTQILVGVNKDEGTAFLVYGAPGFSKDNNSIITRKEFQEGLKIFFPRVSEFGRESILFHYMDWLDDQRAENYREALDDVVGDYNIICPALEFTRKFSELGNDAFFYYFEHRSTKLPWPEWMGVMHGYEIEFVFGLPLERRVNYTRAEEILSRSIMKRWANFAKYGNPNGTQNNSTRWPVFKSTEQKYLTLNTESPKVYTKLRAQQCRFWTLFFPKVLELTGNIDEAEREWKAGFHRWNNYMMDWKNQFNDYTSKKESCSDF
Sequence of Acetylcholinesterase (O42275 whole entry): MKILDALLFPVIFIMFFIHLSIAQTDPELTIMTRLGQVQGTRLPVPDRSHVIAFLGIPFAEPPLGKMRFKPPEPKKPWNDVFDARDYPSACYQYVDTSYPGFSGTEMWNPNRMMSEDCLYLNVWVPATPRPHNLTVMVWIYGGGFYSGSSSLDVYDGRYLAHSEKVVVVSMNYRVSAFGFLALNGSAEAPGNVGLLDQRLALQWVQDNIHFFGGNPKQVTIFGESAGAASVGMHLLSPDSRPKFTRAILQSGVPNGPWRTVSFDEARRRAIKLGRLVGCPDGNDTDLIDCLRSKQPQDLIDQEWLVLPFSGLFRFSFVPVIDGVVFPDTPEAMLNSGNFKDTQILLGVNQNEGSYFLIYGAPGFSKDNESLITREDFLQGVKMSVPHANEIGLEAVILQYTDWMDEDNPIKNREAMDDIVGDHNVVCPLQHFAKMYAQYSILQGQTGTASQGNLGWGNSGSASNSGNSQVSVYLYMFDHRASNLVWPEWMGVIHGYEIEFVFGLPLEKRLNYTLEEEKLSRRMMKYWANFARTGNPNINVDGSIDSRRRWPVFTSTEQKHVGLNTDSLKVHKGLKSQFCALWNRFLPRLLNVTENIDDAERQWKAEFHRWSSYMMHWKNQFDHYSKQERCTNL

CC1=NN(C(=O)c2ccc3ccccc3c2)C(=O)C1/N=N/c1ccc(C)cc1C (stereo unspecified)
Time [1]: 129.5 s | Activity [2]: -40.2% | Activity [3]: -36.3% | Time [4]: 111 s

CC1=NN(c2ccccc2)C(=O)/C1=C\c1cn(-c2ccccc2)nc1-c1ccc(Cl)c(Cl)c1
Activity [5]: 79.76%

C#CCN(C)[C@H](C)Cc1ccccc1 [SELEGILINE]
ED50 [6]: 300 nM

NS(=O)(=O)c1ccc(N2N=C/C(=N/Nc3ccccc3C(=O)O)C2=O)cc1
Ratio IC50 [7]: 5.29 | pIC50 [8]: 6.11 | pIC50 [9]: 5.39

Cc1ccc(/N=N/c2c(N)n[nH]c2N)cc1
zone of inhibition at 100 µg/mL [10]: 19.3 mm | zone of inhibition at 100 µg/mL [11]: 25.3 mm | zone of inhibition at 100 µg/mL [12]: 25.5 mm | zone of inhibition at 100 µg/mL [13]: 23.1 mm

Cc1[nH]n(-c2ccccc2)c(=O)c1C(c1ccc(Br)c(F)c1)c1c(O)ccc2ccccc12 (stereo unspecified)
zone of inhibition at 100 µg/mL [10]: 14.5 mm | zone of inhibition at 100 µg/mL [14]: 20.5 mm | zone of inhibition at 100 µg/mL [15]: 19.5 mm | zone of inhibition at 100 µg/mL [11]: 19.5 mm | zone of inhibition at 100 µg/mL [16]: 16.5 mm | zone of inhibition at 100 µg/mL [17]: 18 mm | zone of inhibition at 100 µg/mL [18]: 10.5 mm | zone of inhibition at 100 µg/mL [19]: 18.5 mm

CC(=O)N1N=C(C)/C(=N/Nc2cc(Cl)cc(Cl)c2)C1=O
MIC [20]: > 200 µg/mL | MIC [21]: ≤ 12.5 µg/mL | MIC [22]: > 200 µg/mL | MIC [23]: ≤ 12.5 µg/mL | MIC [24]: ≤ 12.5 µg/mL

C[C@@H]1C[C@H]2O[C@@H]2/C=C\C=C\C(=O)Cc2c(Cl)c(O)cc(O)c2C(=O)O1 [RADICICOL]
Activity [25]: 80%

Cc1cccc(C)c1/C=N/c1c(C)n(C)n(-c2ccccc2)c1=O
pIC50 [26]: 7.24 | inhibition [27]: 96.3% | inhibition (INH) [28]: 42.3%

O=C1CC(NC(=O)CN2CCNCC2)=NN1
selectivity ratio [29]: 631 | pIC50 [30]: > 6.36

Cc1[nH]n(-c2ccccc2)c(=O)c1C(c1ccc([N+](=O)[O-])cc1[N+](=O)[O-])c1c(O)ccc2ccccc12 (stereo unspecified)
zone of inhibition at 100 µg/mL [10]: 13.5 mm | zone of inhibition at 100 µg/mL [14]: 20 mm | zone of inhibition at 100 µg/mL [15]: 20 mm | zone of inhibition at 100 µg/mL [11]: 22.5 mm | zone of inhibition at 100 µg/mL [16]: 21.5 mm | zone of inhibition at 100 µg/mL [17]: 14.5 mm | zone of inhibition at 100 µg/mL [18]: 21.5 mm | zone of inhibition at 100 µg/mL [19]: 28.5 mm

Cn1cc(-c2[nH][nH]c(=O)c2-c2cn(C)c3ccccc23)c2ccccc21
pIC50 [31]: 7.47

— ChEMBL document CHEMBL5233210, “Pyrazolone structural motif in medicinal chemistry: Retrospect and prospect” (Eur J Med Chem, 2020)
